# Reference: patent US20260053764A1, “COMPOSITION FOR PREVENTING DETERIORATION IN COGNITIVE FUNCTION AND/OR IMPROVING COGNITIVE FUNCTION” (PHARMA FOODS INTERNATIONAL CO., LTD., priority 2020, published 2026)
# System: cognitive function of a human
# Assay: Cognitrax test in placebo-controlled randomized double-blind clinical tests A and B
# Assay type: in vivo
# Parameters: Reaction time / Complex attention / Cognitive flexibility / Social acuity / Non-verbal reasoning / Working memory / Continuous attention / Simple attention: scale not given here
# Excerpt: A Cognitrax test is known as such an examination that can assess a plurality of domains or items of cognitive function. The Cognitrax test is a cognitive function examination service practiced on the Web based on the cognitive function examination technique developed by CNS Vital Signs in the United States. In the Cognitrax test, among a total of 10 types of tests, which are verbal memory test, visual memory test, finger tapping test, symbol digit coding test (SDC test), Stroop test, shifting attention test, continuous performance test, perception of emotion test, reasoning test and four part continuous performance test, a test is carried out in accordance with the purpose of the examination to digitize the examination result regarding each of a total of 16 types of items at most, which are neurocognition index, composite memory, verbal memory, visual memory, psychomotor speed, reaction time, complex attention, cognitive flexibility, processing speed, executive function, social acuity, non-verbal reasoning, working memory, continuous attention, simple attention and motor speed.
# Two types of placebo-controlled randomized double-blind two-group parallel comparison tests were carried out as clinical tests. […] Specifically, capsules comprising 100 mg of dextrin per capsule were used as the placebo food.
# The screening examination was carried out to select 60 subjects for each test (a total of 120 subjects). MMSE (Mini Mental State Examination) is an examination for assessing the degree of progression of dementia or the like based on the score thereof with 30 as the perfect score, wherein dementia is suspected with a score of 23 or lower.
# • (1) Japanese male and female at the age of 40 or higher • (2) People aware of reduction in cognitive function • (3) People who can continuously ingest the test food every day for 12 weeks • (4) People with an MMSE score of 24 or higher • (5) People who have received sufficient explanation of the purpose/content of the clinical test, have the ability to give consent, voluntarily applied to participate in the clinical test with sufficient understanding, and gave consent to the participation in the clinical test on paper
# The total of 120 subjects were randomly divided into test A active group, test A placebo group, test B active group and test B placebo group with 30 subjects in each group. Each subject of the test A active group ingested two capsules of the active food, each subject of the test A placebo group ingested two capsules of the placebo food, each subject of the test B active group ingested one capsule of the active food and each subject of the test B placebo group ingested one capsule of the placebo food.
# Each subject followed the schedule shown in the table below and ingested one or two of the assigned capsules together with water for 12 weeks from two weeks after the initial screening examination. All subjects had no particular instruction during the ingestion period and freely took their meals.
# As shown with ● in the test schedule in Table 1, Cognitrax was carried out a total of five times, which are upon screening, before starting test food sample ingestion, after four weeks of ingestion, after eight weeks of ingestion and after twelve weeks of ingestion, and the RBANS neuropsychological test was carried out a total of two times, which are before staring test food ingestion and after twelve weeks of ingestion.
# [1] = test B 100 mg, before ingestion
# [2] = test B 100 mg, before ingestion, mean ± SD
compound,measurement,setting,value
"NCCCC(=O)O [GABA, γ-aminobutyric acid]",Cognition flexibility: difference between active food and placebo food groups,"test B 100 mg, 4 w",−3.6
same,Complex attention: difference between active food and placebo food groups,"test B 100 mg, 4 w",−4.0
same,Composite memory: difference between active food and placebo food groups,"test B 100 mg, 4 w",7.2
same,Continuous attention: difference between active food and placebo food groups,"test B 100 mg, 4 w",−0.6
same,Executive function: difference between active food and placebo food groups,"test B 100 mg, 4 w",−3.2
same,Motor speed: difference between active food and placebo food groups,"test B 100 mg, 4 w",6.9
same,Non-verbal reasoning: difference between active food and placebo food groups,"test B 100 mg, 4 w",0.5
same,Processing speed: difference between active food and placebo food groups,"test B 100 mg, 4 w",0.8
same,Psychomotor speed: difference between active food and placebo food groups,"test B 100 mg, 4 w",5.3
same,Reaction time: difference between active food and placebo food groups,"test B 100 mg, 4 w",0.8
same,Simple attention: difference between active food and placebo food groups,"test B 100 mg, 4 w",−5.8
same,Social acuity: difference between active food and placebo food groups,"test B 100 mg, 4 w",−4.4
same,Verbal memory: difference between active food and placebo food groups,"test B 100 mg, 4 w",9.1
same,Visual memory: difference between active food and placebo food groups,"test B 100 mg, 4 w",2.4
same,Working memory: difference between active food and placebo food groups,"test B 100 mg, 4 w",0.4
same,Cognitive flexibility,"test B 100 mg, 4 w, mean ± SD",105.8 ± 11.3
same,Complex attention,"test B 100 mg, 4 w, mean ± SD",106.3 ± 12.9
same,Continuous attention,"test B 100 mg, 4 w, mean ± SD",111.8 ± 7.2
same,Reaction time,"test B 100 mg, 4 w, mean ± SD",97.8 ± 10.8
same,Simple attention,"test B 100 mg, 4 w, mean ± SD",97.8 ± 25.2
same,Social acuity,"test B 100 mg, 4 w, mean ± SD",90.5 ± 16.7
same,Working memory,"test B 100 mg, 4 w, mean ± SD",110.4 ± 9.3
same,Cognition flexibility: difference between active food and placebo food groups,"test B 100 mg, 8 w",−0.5
same,Complex attention: difference between active food and placebo food groups,"test B 100 mg, 8 w",−0.4
same,Composite memory: difference between active food and placebo food groups,"test B 100 mg, 8 w",7.4
same,Continuous attention: difference between active food and placebo food groups,"test B 100 mg, 8 w",−0.8
same,Executive function: difference between active food and placebo food groups,"test B 100 mg, 8 w",−0.4
same,Motor speed: difference between active food and placebo food groups,"test B 100 mg, 8 w",7.3
same,Non-verbal reasoning: difference between active food and placebo food groups,"test B 100 mg, 8 w",0.5
same,Processing speed: difference between active food and placebo food groups,"test B 100 mg, 8 w",1.5
same,Psychomotor speed: difference between active food and placebo food groups,"test B 100 mg, 8 w",6.3
same,Reaction time: difference between active food and placebo food groups,"test B 100 mg, 8 w",1.4
same,Simple attention: difference between active food and placebo food groups,"test B 100 mg, 8 w",2.8
same,Social acuity: difference between active food and placebo food groups,"test B 100 mg, 8 w",6.1
same,Verbal memory: difference between active food and placebo food groups,"test B 100 mg, 8 w",8.8
same,Visual memory: difference between active food and placebo food groups,"test B 100 mg, 8 w",3.1
same,Working memory: difference between active food and placebo food groups,"test B 100 mg, 8 w",−1.8
same,Complex attention,"test B 100 mg, 8 w, mean ± SD",109.6 ± 10.3
same,Continuous attention,"test B 100 mg, 8 w, mean ± SD",110.2 ± 8.9
same,Non-verbal reasoning,"test B 100 mg, 8 w, mean ± SD",106.2 ± 12.2
same,Reaction time,"test B 100 mg, 8 w, mean ± SD",97.9 ± 10.0
same,Simple attention,"test B 100 mg, 8 w, mean ± SD",101.3 ± 13.0
same,Social acuity,"test B 100 mg, 8 w, mean ± SD",95.4 ± 17.0
same,Working memory,"test B 100 mg, 8 w, mean ± SD",109.8 ± 9.5
same,Cognition flexibility: difference between active food and placebo food groups,"test B 100 mg, 12 w",−2.3
same,Complex attention: difference between active food and placebo food groups,"test B 100 mg, 12 w",−2.5
same,Composite memory: difference between active food and placebo food groups,"test B 100 mg, 12 w",5.5
same,Continuous attention: difference between active food and placebo food groups,"test B 100 mg, 12 w",0.0
same,Executive function: difference between active food and placebo food groups,"test B 100 mg, 12 w",−2.4
same,Motor speed: difference between active food and placebo food groups,"test B 100 mg, 12 w",6.5
same,Non-verbal reasoning: difference between active food and placebo food groups,"test B 100 mg, 12 w",3.9
same,Processing speed: difference between active food and placebo food groups,"test B 100 mg, 12 w",2.4
same,Psychomotor speed: difference between active food and placebo food groups,"test B 100 mg, 12 w",5.4
same,Reaction time: difference between active food and placebo food groups,"test B 100 mg, 12 w",−1.7
same,Simple attention: difference between active food and placebo food groups,"test B 100 mg, 12 w",−6.5
same,Social acuity: difference between active food and placebo food groups,"test B 100 mg, 12 w",4.6
same,Verbal memory: difference between active food and placebo food groups,"test B 100 mg, 12 w",6.8
same,Visual memory: difference between active food and placebo food groups,"test B 100 mg, 12 w",2.1
same,Working memory: difference between active food and placebo food groups,"test B 100 mg, 12 w",0.9
same,Complex attention,"test B 100 mg, 12 w, mean ± SD",109.9 ± 10.1
same,Continuous attention,"test B 100 mg, 12 w, mean ± SD",110.8 ± 13.8
same,Motor speed,"test B 100 mg, 12 w, mean ± SD",108.3 ± 12.9
same,Non-verbal reasoning,"test B 100 mg, 12 w, mean ± SD",107.5 ± 10.6
same,Simple attention,"test B 100 mg, 12 w, mean ± SD",99.2 ± 21.3
same,Social acuity,"test B 100 mg, 12 w, mean ± SD",97.2 ± 17.0
same,Working memory,"test B 100 mg, 12 w, mean ± SD",112.2 ± 7.9
same,Cognition flexibility: difference between active food and placebo food groups,[1],2.4
same,Complex attention: difference between active food and placebo food groups,[1],3.0
same,Composite memory: difference between active food and placebo food groups,[1],5.2
same,Continuous attention: difference between active food and placebo food groups,[1],1.2
same,Executive function: difference between active food and placebo food groups,[1],2.1
same,Motor speed: difference between active food and placebo food groups,[1],6.4
same,Non-verbal reasoning: difference between active food and placebo food groups,[1],3.1
same,Processing speed: difference between active food and placebo food groups,[1],1.5
same,Psychomotor speed: difference between active food and placebo food groups,[1],4.5
same,Reaction time: difference between active food and placebo food groups,[1],1.9
same,Simple attention: difference between active food and placebo food groups,[1],3.3
same,Social acuity: difference between active food and placebo food groups,[1],0.8
same,Verbal memory: difference between active food and placebo food groups,[1],6.4
same,Visual memory: difference between active food and placebo food groups,[1],2.0
same,Working memory: difference between active food and placebo food groups,[1],2.6
same,Cognitive flexibility,[2],105.9 ± 10.0
same,Continuous attention,[2],111.6 ± 6.9
same,Executive function,[2],105.5 ± 9.9
same,Non-verbal reasoning,[2],102.6 ± 14.1
same,Reaction time,[2],98.1 ± 9.0
same,Simple attention,[2],101.2 ± 14.9
same,Social acuity,[2],92.6 ± 16.0
same,Working memory,[2],110.5 ± 7.9
same,"scores regarding motor speed, GABA group compared to the placebo group","test B, at least after eight weeks of ingestion",significant improvement
